The values below are quoted from earlier work in article PMC7958448, “Bepridil is potent against SARS-CoV-2 in vitro” (Proceedings of the National Academy of Sciences of the …, 2021).

Each structure is given as a SMILES string.

The series relates to SARS-CoV-2 in Vero E6 cells. Particulars: cited from earlier work.

Regarding `CCC(CC)COC(=O)[C@H](C)N[P@](=O)(OC[C@H]1O[C@@](C#N)(c2ccc3c(N)ncnn23)[C@H](O)[C@@H]1O)Oc1ccccc1` [remdesivir], the concentration giving a half-maximal response (EC50) is 770 nM.

For orientation: EC50 means the concentration needed to bring the measured effect to its halfway point.
